From ChEMBL document CHEMBL1156053, “Design, synthesis, protein-ligand X-ray structure, and biological evaluation of a series of novel macrocyclic human immunodeficiency virus-1 protease inhibitors to combat drug resistance” (J Med Chem, 2009)

Assays:
[1] = biological target: Protease (Human immunodeficiency virus 1, UniProt Q9YQ12); assay: Inhibition of HIV1 protease
[2] = system: Human immunodeficiency virus 1; assay: Antiviral activity against HIV1 LAI infected in human MT2 cells by MTT assay; format: functional, organism-based; conditions: Human immunodeficiency virus 1, M:B_Lai
[3] = system: Human immunodeficiency virus 1; assay: Antiviral activity against indinavir-resistant HIV1 NL4-3; format: functional, organism-based; conditions: Human immunodeficiency virus 1, NL4-3
[4] = system: Human immunodeficiency virus 1; assay: Antiviral activity against lopinavir-resistant HIV1 NL4-3; format: functional, organism-based; conditions: Human immunodeficiency virus 1, NL4-3
[5] = system: Human immunodeficiency virus 1; assay: Antiviral activity against saquinavir-resistant HIV1 NL4-3; format: functional, organism-based; conditions: Human immunodeficiency virus 1, NL4-3
[6] = system: Human immunodeficiency virus 1; assay: Antiviral activity against multidrug-resistant HIV1 isolate TM infected in PHA-stimulated human PBMC assessed as inhibition of p24 […] protein production; format: functional, organism-based; conditions: Human immunodeficiency virus 1, isolate TM
[7] = system: Human immunodeficiency virus 1; assay: Antiviral activity against multidrug-resistant HIV1 isolate JSL infected in PHA-stimulated human PBMC assessed as inhibition of p24 […] protein production; format: functional, organism-based; conditions: Human immunodeficiency virus 1, isolate JSL
[8] = system: Human immunodeficiency virus 1; assay: Antiviral activity against multidrug-resistant HIV1 isolate MM infected in PHA-stimulated human PBMC assessed as inhibition of p24 […] protein production; format: functional, organism-based; conditions: Human immunodeficiency virus 1, isolate MM
[9] = system: Human immunodeficiency virus 1; assay: Antiviral activity against multidrug-resistant HIV1 isolate G infected in PHA-stimulated human PBMC assessed as inhibition of p24 […] protein production; format: functional, organism-based; conditions: Human immunodeficiency virus 1, isolate G
[10] = system: Human immunodeficiency virus 1; assay: Antiviral activity against wild type HIV1 isolate ERS104pre infected in PHA-stimulated human PBMC assessed as inhibition of p24 […] protein production; format: functional, organism-based; conditions: Human immunodeficiency virus 1, isolate ERS104pre
[11] = system: Human immunodeficiency virus 1; assay: Antiviral activity against multidrug-resistant HIV1 isolate B infected in PHA-stimulated human PBMC assessed as inhibition of p24 […] protein production; format: functional, organism-based; conditions: Human immunodeficiency virus 1, isolate B
[12] = system: Human immunodeficiency virus 1; assay: Antiviral activity against multidrug-resistant HIV1 isolate C infected in PHA-stimulated human PBMC assessed as inhibition of p24 […] protein production; format: functional, organism-based; conditions: Human immunodeficiency virus 1, isolate C
[13] = system: Human immunodeficiency virus 1; assay: Selectivity ratio of IC50 for multidrug-resistant HIV1 isolate G to IC50 for wild type HIV1 isolate ERS104pre; format: functional
[14] = system: Human immunodeficiency virus 1; assay: Selectivity ratio of IC50 for multidrug-resistant HIV1 isolate MM to IC50 for wild type HIV1 isolate ERS104pre; format: functional
[15] = system: Human immunodeficiency virus 1; assay: Selectivity ratio of IC50 for multidrug-resistant HIV1 isolate JSL to IC50 for wild type HIV1 isolate ERS104pre; format: functional
[16] = system: Human immunodeficiency virus 1; assay: Selectivity ratio of IC50 for multidrug-resistant HIV1 isolate TM to IC50 for wild type HIV1 isolate ERS104pre; format: functional
[17] = system: Human immunodeficiency virus 1; assay: Selectivity ratio of IC50 for multidrug-resistant HIV1 isolate C to IC50 for wild type HIV1 isolate ERS104pre; format: functional
[18] = system: Human immunodeficiency virus 1; assay: Selectivity ratio of IC50 for multidrug-resistant HIV1 isolate B to IC50 for wild type HIV1 isolate ERS104pre; format: functional

Sequence of Protease (Q9YQ12 whole entry): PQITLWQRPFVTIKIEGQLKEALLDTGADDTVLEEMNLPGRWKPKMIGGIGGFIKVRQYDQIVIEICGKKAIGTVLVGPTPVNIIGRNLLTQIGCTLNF

SMILES | Ki [1] [nM] | IC50 [2] [nM] | other results
COc1ccc2c(c1)OCCCCCCN(C[C@@H](O)[C@H](Cc1ccccc1)NC(=O)O[C@H]1CO[C@H]3OCC[C@H]31)S2(=O)=O | 0.15 | 95 | –
C=CCCCCOc1cc(OC)ccc1S(=O)(=O)N(CCCCC=C)C[C@@H](O)[C@H](Cc1ccccc1)NC(=O)O[C@H]1CO[C@H]2OCC[C@H]21 | 16.5 | > 1000 | –
C=CCCCCOc1cc(OC)ccc1S(=O)(=O)N(CC=C)C[C@@H](O)[C@H](Cc1ccccc1)NC(=O)O[C@H]1CO[C@H]2OCC[C@H]21 | 1.7 | 270 | –
COc1ccc2c(c1)OCCCCCCC[C@@H](C)CN(C[C@@H](O)[C@H](Cc1ccccc1)NC(=O)O[C@H]1CO[C@H]3OCC[C@H]31)S2(=O)=O | 3.7 | 650 | –
COc1ccc2c(c1)OCCC=CCCCCN(C[C@@H](O)[C@H](Cc1ccccc1)NC(=O)O[C@H]1CO[C@H]3OCC[C@H]31)S2(=O)=O | – | – | IC50 [3]: 20 nM; IC50 [4]: 20 nM; IC50 [5]: 20 nM
COc1ccc2c(c1)OCCCCCN(C[C@@H](O)[C@H](Cc1ccccc1)NC(=O)O[C@H]1CO[C@H]3OCC[C@H]31)S2(=O)=O | 0.09 | 5.5 | –
CC(C)(C)NC(=O)[C@@H]1C[C@@H]2CCCC[C@@H]2CN1C[C@@H](O)[C@H](Cc1ccccc1)NC(=O)[C@H](CC(N)=O)NC(=O)c1ccc2ccccc2n1 | – | – | IC50 [6]: 260 nM; IC50 [7]: 300 nM; IC50 [8]: 190 nM; IC50 [9]: 30 nM; IC50 [10]: 8 nM; IC50 [11]: 270 nM; IC50 [12]: 32 nM
C=CCCCCN(C[C@@H](O)[C@H](Cc1ccccc1)NC(=O)O[C@H]1CO[C@H]2OCC[C@H]21)S(=O)(=O)c1ccc(OC)cc1OCCCC=C | 11.5 | > 1000 | –
COc1ccc2c(c1)OCCC/C=C\CC[C@@H](C)CN(C[C@@H](O)[C@H](Cc1ccccc1)NC(=O)O[C@H]1CO[C@H]3OCC[C@H]31)S2(=O)=O | 6 | 200 | –
C=CCCCOc1cc(OC)ccc1S(=O)(=O)N(CC=C)C[C@@H](O)[C@H](Cc1ccccc1)NC(=O)O[C@H]1CO[C@H]2OCC[C@H]21 | 1.02 | 290 | –
C=CCCCCOc1cc(OC)ccc1S(=O)(=O)N(CC(C)CC=C)C[C@@H](O)[C@H](Cc1ccccc1)NC(=O)O[C@H]1CO[C@H]2OCC[C@H]21 (some centres undefined) | 15 | 380 | –
COc1ccc2c(c1)OCCC/C=C/CC[C@H](C)CN(C[C@@H](O)[C@H](Cc1ccccc1)NC(=O)O[C@H]1CO[C@H]3OCC[C@H]31)S2(=O)=O | 0.15 | 52 | –
COc1ccc2c(c1)OCCC/C=C/CCC(C)(C)CN(C[C@@H](O)[C@H](Cc1ccccc1)NC(=O)O[C@H]1CO[C@H]3OCC[C@H]31)S2(=O)=O | 6.9 | > 1000 | –
COc1ccc2c(c1)OCCCCCCCCN(C[C@@H](O)[C@H](Cc1ccccc1)NC(=O)O[C@H]1CO[C@H]3OCC[C@H]31)S2(=O)=O | 0.47 | 22 | –
COc1ccc2c(c1)OCCC/C=C/CC[C@@H](C)CN(C[C@@H](O)[C@H](Cc1ccccc1)NC(=O)O[C@H]1CO[C@H]3OCC[C@H]31)S2(=O)=O | 2.8 | 6.3 | –
C=CCCCCOc1cc(OC)ccc1S(=O)(=O)N(C[C@@H](C)CC=C)C[C@@H](O)[C@H](Cc1ccccc1)NC(=O)O[C@H]1CO[C@H]2OCC[C@H]21 | 58 | > 1000 | –
Cc1cccc(C)c1OCC(=O)N[C@@H](Cc1ccccc1)[C@@H](O)C[C@H](Cc1ccccc1)NC(=O)[C@H](C(C)C)N1CCCNC1=O [LOPINAVIR] | – | – | IC50 [6]: > 1000 nM; Ratio IC50 [13]: 8; Ratio IC50 [14]: >29; Ratio IC50 [15]: >29; Ratio IC50 [16]: >29; IC50 [7]: > 1000 nM; IC50 [8]: > 1000 nM; IC50 [9]: 260 nM; Ratio IC50 [17]: >29; IC50 [10]: 34 nM; Ratio IC50 [18]: >29; IC50 [11]: > 1000 nM; IC50 [12]: > 1000 nM
C=CCCCCOc1cc(OC)ccc1S(=O)(=O)N(C[C@@H](O)[C@H](Cc1ccccc1)NC(=O)O[C@H]1CO[C@H]2OCC[C@H]21)CC(C)(C)CC=C | 82 | > 1000 | –

SMILES | Ki [1] [nM] | IC50 [2] [nM] | other results
C=CCCOc1cc(OC)ccc1S(=O)(=O)N(CC=C)C[C@@H](O)[C@H](Cc1ccccc1)NC(=O)O[C@H]1CO[C@H]2OCC[C@H]21 | 0.63 | – | –
COc1ccc2c(c1)OCCC/C=C\CC[C@H](C)CN(C[C@@H](O)[C@H](Cc1ccccc1)NC(=O)O[C@H]1CO[C@H]3OCC[C@H]31)S2(=O)=O | 0.31 | 9 | –
COc1ccc2c(c1)OCCCCCCCCCCN(C[C@@H](O)[C@H](Cc1ccccc1)NC(=O)O[C@H]1CO[C@H]3OCC[C@H]31)S2(=O)=O | 0.82 | 318 | –
COc1ccc2c(c1)OCCCCCCCN(C[C@@H](O)[C@H](Cc1ccccc1)NC(=O)O[C@H]1CO[C@H]3OCC[C@H]31)S2(=O)=O | 0.017 | 14 | –
CC(C)CN(C[C@@H](O)[C@H](Cc1ccccc1)NC(=O)O[C@H]1CCOC1)S(=O)(=O)c1ccc(N)cc1 | – | – | IC50 [6]: 320 nM; IC50 [7]: 620 nM; IC50 [8]: 210 nM; IC50 [9]: 430 nM; IC50 [10]: 30 nM; IC50 [11]: > 1000 nM; IC50 [12]: 370 nM
C=CCOc1cc(OC)ccc1S(=O)(=O)N(CC=C)C[C@@H](O)[C@H](Cc1ccccc1)NC(=O)O[C@H]1CO[C@H]2OCC[C@H]21 | 0.1 | – | –
COc1ccc(S(=O)(=O)N(CC(C)C)C[C@@H](O)[C@H](Cc2ccccc2)NC(=O)O[C@H]2CO[C@H]3OCC[C@H]32)cc1 | – | 1.2 | –
COc1ccc2c(c1)OCC/C=C\CN(C[C@@H](O)[C@H](Cc1ccccc1)NC(=O)O[C@H]1CO[C@H]3OCC[C@H]31)S2(=O)=O | 0.051 | 15 | –
COc1ccc2c(c1)OC/C=C\CN(C[C@@H](O)[C@H](Cc1ccccc1)NC(=O)O[C@H]1CO[C@H]3OCC[C@H]31)S2(=O)=O | 2.4 | – | –
C=CCCCCN(C[C@@H](O)[C@H](Cc1ccccc1)NC(=O)O[C@H]1CO[C@H]2OCC[C@H]21)S(=O)(=O)c1ccc(OC)cc1OCC=C | 10 | – | –
COc1ccc2c(c1)OCCC/C=C\CN(C[C@@H](O)[C@H](Cc1ccccc1)NC(=O)O[C@H]1CO[C@H]3OCC[C@H]31)S2(=O)=O | 0.077 | 20 | –
COc1ccc2c(c1)OCCCCCCCC(C)(C)CN(C[C@@H](O)[C@H](Cc1ccccc1)NC(=O)O[C@H]1CO[C@H]3OCC[C@H]31)S2(=O)=O | 6.8 | > 1000 | –
C=CCCCCN(C[C@@H](O)[C@H](Cc1ccccc1)NC(=O)O[C@H]1CO[C@H]2OCC[C@H]21)S(=O)(=O)c1ccc(OC)cc1OCCC=C | 6.9 | – | –
CC(C)(C)NC(=O)[C@@H]1CN(Cc2cccnc2)CCN1C[C@@H](O)C[C@@H](Cc1ccccc1)C(=O)N[C@H]1c2ccccc2C[C@H]1O.O | – | – | IC50 [6]: > 1000 nM; Ratio IC50 [13]: 5; Ratio IC50 [14]: >23; Ratio IC50 [15]: >23; Ratio IC50 [16]: >23; IC50 [7]: > 1000 nM; IC50 [8]: > 1000 nM; IC50 [9]: 340 nM; Ratio IC50 [17]: >23; IC50 [10]: 43 nM; Ratio IC50 [18]: >23; IC50 [11]: > 1000 nM; IC50 [12]: > 1000 nM
COc1ccc2c(c1)OC/C=C\CCCCN(C[C@@H](O)[C@H](Cc1ccccc1)NC(=O)O[C@H]1CO[C@H]3OCC[C@H]31)S2(=O)=O | 0.058 | 14 | –
COc1ccc2c(c1)OCCCCCCC[C@H](C)CN(C[C@@H](O)[C@H](Cc1ccccc1)NC(=O)O[C@H]1CO[C@H]3OCC[C@H]31)S2(=O)=O | 0.07 | 170 | –
COc1ccc2c(c1)OCCCCCCCCCN(C[C@@H](O)[C@H](Cc1ccccc1)NC(=O)O[C@H]1CO[C@H]3OCC[C@H]31)S2(=O)=O | 0.67 | 49 | –
COc1ccc2c(c1)OCCCC/C=C\CN(C[C@@H](O)[C@H](Cc1ccccc1)NC(=O)O[C@H]1CO[C@H]3OCC[C@H]31)S2(=O)=O | 0.08 | 23 | –
